Measurements published in ChEMBL document CHEMBL5537158, “Polymyxins with Potent Antibacterial Activity against Colistin-Resistant Pathogens: Fine-Tuning Hydrophobicity with Unnatural Amino Acids” (J Med Chem, 2024).
≈ marks a conversion by molar mass, not a printed value. Positions of bridges follow the written chain, without caps; N, C: chain ends. Non-standard residues stand in square brackets, D forms with d. Residues, ends and D or L forms follow the SMILES beside them. *: point of attachment. d(hPhe) = N[C@H](CCc1ccccc1)C(=O)O; hPhe = N[C@@H](CCc1ccccc1)C(=O)O; dAoc(2) = CCCCCC[C@@H](N)C(=O)O; Octanoyl = CCCCCCCC(=O)*; Dab = NCC[C@H](N)C(=O)O

Key:
[1] = Hemolytic activity in human RBC at 400 ug/ml after 1 hr; type: toxicity, cell-based, Erythrocyte; conditions: red blood cells (erythrocytes), at 400 µg/mL, read-out: Activity
Pseudomonas aeruginosa [2] = assay: Antimicrobial activity against Pseudomonas aeruginosa PAO1 assessed as bacterial growth inhibition incubated for 20 hrs by broth microdilution method; type: functional
Klebsiella pneumoniae [3] = assay: Antimicrobial activity against Klebsiella pneumoniae ATCC 13883 assessed as bacterial growth inhibition incubated for 20 hrs by broth microdilution method; type: functional
Escherichia coli [4] = assay: Antibacterial activity against Escherichia coli ATCC 25922 assessed as bacterial growth inhibition incubated for 20 hrs by broth microdilution method; type: functional
Pseudomonas aeruginosa [5] = assay: Antimicrobial activity against colistin resistant Pseudomonas aeruginosa 7197/19 assessed as bacterial growth inhibition incubated for 20 hrs by broth microdilution method; type: functional
Acinetobacter baumannii [6] = assay: Antimicrobial activity against Acinetobacter baumannii ATCC 19606 assessed as bacterial growth inhibition incubated for 20 hrs by broth microdilution method; type: functional
Acinetobacter baumannii [7] = assay: Antimicrobial activity against colistin resistant Acinetobacter baumannii ATCC 3658/17 assessed as bacterial growth inhibition incubated for 20 hrs by broth microdilution method; type: functional
Escherichia coli [8] = assay: Antimicrobial activity against […] Escherichia coli harboring mcr-1 assessed as bacterial growth inhibition incubated for 20 hrs by broth microdilution method; type: functional
Acinetobacter baumannii [9] = assay: Antimicrobial activity against colistin resistant Acinetobacter baumannii clinical isolate 3 assessed as bacterial growth inhibition incubated for 20 hrs by broth microdilution method; type: functional
Klebsiella pneumoniae [10] = assay: Antimicrobial activity against colistin resistant Klebsiella pneumoniae clinical isolate 4 assessed as bacterial growth inhibition incubated for 20 hrs by broth microdilution method; type: functional
Klebsiella pneumoniae [11] = assay: Antimicrobial activity against colistin resistant Klebsiella pneumoniae clinical isolate 3 assessed as bacterial growth inhibition incubated for 20 hrs by broth microdilution method; type: functional
Escherichia coli [12] = assay: Antibacterial activity against […] Escherichia coli clinical isolate 2 assessed as bacterial growth inhibition incubated for 20 hrs by broth microdilution method; type: functional
Klebsiella pneumoniae [13] = assay: Antimicrobial activity against colistin resistant Klebsiella pneumoniae clinical isolate 2 assessed as bacterial growth inhibition incubated for 20 hrs by broth microdilution method; type: functional
Pseudomonas aeruginosa [14] = assay: Antimicrobial activity against Pseudomonas aeruginosa ATCC 27853 assessed as bacterial growth inhibition incubated for 20 hrs by broth microdilution method; type: functional
Klebsiella pneumoniae [15] = assay: Antimicrobial activity against colistin resistant Klebsiella pneumoniae clinical isolate 1 assessed as bacterial growth inhibition incubated for 20 hrs by broth microdilution method; type: functional
Escherichia coli [16] = assay: Antibacterial activity against […] Escherichia coli clinical isolate 1 assessed as bacterial growth inhibition incubated for 20 hrs by broth microdilution method; type: functional
Escherichia coli [17] = assay: Antibacterial activity against […] Escherichia coli clinical isolate 3 assessed as bacterial growth inhibition incubated for 20 hrs by broth microdilution method; type: functional

Row | Compound | hemolysis at 1 h, 400 ug/ml [1] [%] | MIC (Pseudomonas aeruginosa [2]) [µg/mL] | MIC (Klebsiella pneumoniae [3]) [µg/mL] | MIC (Escherichia coli [4]) [µg/mL] | MIC (Pseudomonas aeruginosa [5]) [µg/mL] | MIC (Acinetobacter baumannii [6]) [µg/mL] | MIC (Acinetobacter baumannii [7]) [µg/mL] | MIC (Escherichia coli [8]) [µg/mL] | MIC (Acinetobacter baumannii [9]) [µg/mL] | MIC (Klebsiella pneumoniae [10]) [µg/mL] | MIC (Klebsiella pneumoniae [11]) [µg/mL] | MIC (Escherichia coli [12]) [µg/mL] | MIC (Klebsiella pneumoniae [13]) [µg/mL] | MIC (Pseudomonas aeruginosa [14]) [µg/mL] | MIC (Klebsiella pneumoniae [15]) [µg/mL] | MIC (Escherichia coli [16]) [µg/mL] | MIC (Escherichia coli [17]) [µg/mL]
1 | CC(=O)N[C@H](Cc1ccc(Br)cc1)C(=O)N[C@@H](CCN)C(=O)N[C@H](C(=O)N[C@@H](CCN)C(=O)N[C@H]1CCNC(=O)[C@H]([C@@H](C)O)NC(=O)[C@H](CCN)NC(=O)[C@H](CCN)NC(=O)[C@H](CC(C)C)NC(=O)[C@@H](Cc2ccccc2)NC(=O)[C@@H](CCN)NC1=O)[C@H](C)O | < 10 | 0.125 (≈ 0.0939 µM) | 8 (≈ 6.01 µM) | 0.06 (≈ 0.0451 µM) | 16 (≈ 12 µM) |  |  |  |  |  |  |  |  |  |  |  | 
2 | CC(=O)N[C@H](Cc1ccc(Cl)cc1)C(=O)N[C@@H](CCN)C(=O)N[C@H](C(=O)N[C@@H](CCN)C(=O)N[C@H]1CCNC(=O)[C@H]([C@@H](C)O)NC(=O)[C@H](CCN)NC(=O)[C@H](CCN)NC(=O)[C@H](CC(C)C)NC(=O)[C@@H](Cc2ccccc2)NC(=O)[C@@H](CCN)NC1=O)[C@H](C)O | < 10 |  | 16 (≈ 12.4 µM) |  |  | 0.5 (≈ 0.389 µM) |  |  |  |  |  |  |  |  |  |  | 
3 | CCCCCCCC(=O)N[C@@H](CCN)C(=O)N[C@H](C(=O)N[C@@H](CCN)C(=O)N[C@H]1CCNC(=O)[C@H]([C@@H](C)O)NC(=O)[C@H](CCN)NC(=O)[C@H](CCN)NC(=O)[C@H](Cc2ccccc2)NC(=O)[C@@H](CCCCCC)NC(=O)[C@H](CCN)NC1=O)[C@@H](C)O (Octanoyl-[Dab]T[Dab][Dab][Dab][dAoc(2)]F[Dab][Dab]T; lactam 4-C) |  |  | 1 (≈ 0.821 µM) | 0.25 (≈ 0.205 µM) | 0.25 (≈ 0.205 µM) | 0.25 (≈ 0.205 µM) | 0.5 (≈ 0.411 µM) |  |  |  |  |  |  |  |  |  | 
4 | CCCCCCCC(=O)N[C@@H](CCN)C(=O)N[C@H](C(=O)N[C@@H](CCN)C(=O)N[C@H]1CCNC(=O)[C@H]([C@@H](C)O)NC(=O)[C@H](CCN)NC(=O)[C@H](CCN)NC(=O)[C@H](Cc2ccccc2)NC(=O)[C@@H](CCc2ccccc2)NC(=O)[C@H](CCN)NC1=O)[C@@H](C)O (Octanoyl-[Dab]T[Dab][Dab][Dab][d(hPhe)]F[Dab][Dab]T; lactam 4-C) |  | 0.25 (≈ 0.202 µM) | 2 (≈ 1.62 µM) | 0.5 (≈ 0.404 µM) | 0.25 (≈ 0.202 µM) | 0.125 (≈ 0.101 µM) | 1 (≈ 0.808 µM) | 2 (≈ 1.62 µM) |  |  |  |  |  |  |  |  | 
5 | CC(=O)N[C@H](Cc1ccc(C(F)(F)F)cc1)C(=O)N[C@@H](CCN)C(=O)N[C@H](C(=O)N[C@@H](CCN)C(=O)N[C@H]1CCNC(=O)[C@H]([C@@H](C)O)NC(=O)[C@H](CCN)NC(=O)[C@H](CCN)NC(=O)[C@H](CC(C)C)NC(=O)[C@@H](Cc2ccccc2)NC(=O)[C@@H](CCN)NC1=O)[C@H](C)O | < 10 | 0.25 (≈ 0.189 µM) | 8 (≈ 6.06 µM) |  | 32 (≈ 24.2 µM) | 0.5 (≈ 0.379 µM) |  | 4 (≈ 3.03 µM) |  |  |  |  |  |  |  |  | 
6 | CCCCCCCC(=O)N[C@@H](CCN)C(=O)N[C@H](C(=O)N[C@@H](CCN)C(=O)N[C@H]1CCNC(=O)[C@H]([C@@H](C)O)NC(=O)[C@H](CCN)NC(=O)[C@H](CCN)NC(=O)[C@H](CCc2ccccc2)NC(=O)[C@@H](CC(C)C)NC(=O)[C@H](CCN)NC1=O)[C@@H](C)O (Octanoyl-[Dab]T[Dab][Dab][Dab][dL][hPhe][Dab][Dab]T; lactam 4-C) |  | 0.25 (≈ 0.208 µM) |  | 0.125 (≈ 0.104 µM) | 1 (≈ 0.831 µM) |  |  | 1 (≈ 0.831 µM) | 1 (≈ 0.831 µM) | 4 (≈ 3.32 µM) | 4 (≈ 3.32 µM) | 1 (≈ 0.831 µM) | 4 (≈ 3.32 µM) | 0.25 (≈ 0.208 µM) | 4 (≈ 3.32 µM) | 1 (≈ 0.831 µM) | 0.5 (≈ 0.415 µM)
